Reference: patent publication US20040023972A1, “Use of substituted imidazo[1,2-a]-pyridin-, -pyrimidin-and-pyrazin-3-yl-amine derivatives in the preparation of medicaments for inhibiting NOS” (Gruenenthal GmbH, priority 2000, published 2004)

target: T1, NO synthase (Rattus norvegicus, UniProt P29476); test: HTS-NOS assay (NOS assay): conversion of radioactive arginine, cation-exchanger filter plate; type: biochemical; conditions: 10 μM
T1 construct: the supernatant was then removed by decantation and frozen in portions at −80° C; from tissue; host or cells: rat cerebellum, 20,000 g supernatant of homogenate
Procedure: This assay enables the percentage inhibition of NO synthase by an active ingredient to be determined by measuring the NOS activity under the action of the active ingredient. NO synthase is mixed together with radioactively labelled arginine and the active ingredient under suitable conditions. After terminating the NO-forming reaction at a given time, the amount of unconverted arginine is determined directly or indirectly. A comparison of that amount with the amount of arginine that remains in a mixture of NOS and arginine without the addition of active ingredient and under otherwise identical conditions gives the % inhibition of NO synthase by the tested active ingredient. This assay can be carried out as follows:
(a) incubation of NO synthase with labelled arginine as substrate in a reaction vessel,
(b) separation of the labelled arginine from the labelled citrulline optionally formed as a product of the enzymatic reaction, at a time at which the citrulline concentration is increasing,
(c) measurement of the amount of arginine remaining in each case.
Separation is carried out over a filter plate membrane.
This NOS assay is suitable especially for “high throughput screening” (HTS) on microtitre plates (MTP).
In this HTS-NOS assay, radioactive arginine is used as substrate. The assay volume can be chosen in the range from 25 μl to 250 μl, according to the type of microtitre plate (MTP). Depending on the source of the enzyme used, co-factors and co-enzymes are added. Incubation of the batches on this microtitre plate (assay MTP) according to step (a) is carried out at room temperature and is for 5 to 60 minutes according to the enzyme activity used (units). At the end of the incubation (step (a)), the plate is placed into a cell harvester which is equipped with a MTP having a cation-exchanger membrane as the filter base (filter MTP). All batches of the assay MTP are transferred to the filter MTP and filtered off with suction over a cation-exchanger filter plate, a paper filter charged with phosphate groups. The filter MTP is then washed with buffer or water. By means of this procedure, the arginine substrate that remains is bound to the cation exchanger, while the enzymatically formed radioactive citrulline is washed out quantitatively. After drying the filter MTP and adding scintillation liquid, the bound arginine can be counted using a scintillation counter. An uninhibited NOS reaction is reflected in low radioactivity. An inhibited enzyme reaction means that the radioactive arginine has not been converted. This means that a high level of radioactivity is found on the filter.
Rat cerebella were used as the starting tissue. The animals were anaesthetized and sacrificed, the brain tissue, the cerebellum, was removed by dissection, 1 ml of enzyme preparation buffer was added per rat cerebellum (4° C.), and disintegration was carried out using a Polytron homogeniser for 1 minute at 6000 rpm, followed by centrifugation for 15 minutes at 4° C. and 20,000 g; the supernatant was then removed by decantation and frozen in portions at −80° C. (the precipitate was discarded).
96-well MTP having a well capacity of <250 μl were used.
Pipetting sequence: see Table 1.
When the pipetting operation was complete, a cover was placed on the MTP (assay MTP), and incubation was at 25° C. (room temperature (RT)) for from 5 to 60 minutes, according to the amount and activity of the enzyme used.
The contents of the assay MTP were then transferred with the aid of a 96-well cell harvester to a 96-well cation exchanger MTP (filter MTP) and filtered off with suction. This was followed by washing once with […] of H2O (from a bath).
The plate was then dried for 1 hour at 60° C. in a drying cabinet. The underside of the filter MTP was then accurately sealed from beneath with a “back seal”. 35 μl of scintillation fluid per well were then added by means of a pipette. The upper side of the plate was also sealed with a “top seal”. […]

| SMILES | HTS-NOS assay: % inhibition (10 μM) [%] |
| --- | --- |
| Cc1cc(C)n2c(Nc3c(C)cccc3C)c(-c3ccccc3F)nc2c1 [Example 34] | 61 |
| C#[N+]CCCCCCNc1c(-c2ccco2)nc2cc(C)cc(C)n12 [Example 45, [6-(2-Furan-2-yl-5,7-dimethyl-imidazo[1,2-a]pyridin-3-ylamino)-hexyl]-methylidyne-ammonium] | 54 |
| [C-]#[N+]CCCCCCNc1c(-c2ccc(C)cc2)nc2cc(C)ccn12 [Example 50, Methylidyne-[6-(7-methyl-2-p-tolyl-imidazo[1,2-a]pyridin-3-ylamino)-hexyl]-ammonium] | 78 |
| CC(=O)OCc1ccc(-c2nc3cc(C)cc(C)n3c2NC2CCCCC2)o1 [Example 52, Acetic acid 5-(3-cyclohexylamino-5,7-dimethyl-imidazo[1,2-a]pyridin-2-yl)-furan-2-yl methyl ester] | 64 |
| CC(=O)OCc1ccc(-c2nc3cc(C)ccn3c2NC2CCCCC2)o1 [Example 58, Acetic acid 5-(3-cyclohexylamino-7-methyl-imidazo[1,2-a]pyridin-2-yl)-furan-2-yl methyl ester] | 64 |
| [C-]#[N+]CCCCCCNc1c(-c2cccnc2)nc2cc(C)cc(C)n12 [Example 59, [6-(5,7-Dimethyl-2-pyridin-3-yl-imidazo[1,2-a]pyridin-3-ylamino)-hexyl]-methylidyne-ammonium] | 57 |
| [C-]#[N+]CCCCCCNc1c(-c2ccccc2OC)nc2cc(C)cc(C)n12 [Example 61, {6-[2-(2-Methoxy-phenyl)-5,7-dimethyl-imidazo[1,2-a]pyridin-3-ylamino]-hexyl}-methylidyne-ammonium] | 73 |

same assay, conditions: read-out: HTS-NOS assay: % inhibition (10 μM)

| SMILES | inhibition at 10 µM [%] |
| --- | --- |
| Cc1cc(C)n2c(Nc3c(C)cccc3C)c(-c3ccccc3C)nc2c1 [Example 32, (2,6-Dimethyl-phenyl)-(5,7-dimethyl-2-o-tolyl-imidazo[1,2-a]pyridin-3-yl)-amine] | 59 |
| Cc1ccn2c(NC(C)(C)C)c(-c3cccc4ccccc34)nc2c1 [Example 33, Tert-butyl-(7-methyl-2-naphthalen-1-yl-imidazo[1,2-a]pyridin-3-yl)-amine] | 67 |
| Cc1cc(C)n2c(NC3CCCCC3)c(C)nc2c1 [Example 35, Cyclohexyl-(2,5,7-trimethyl-imidazo[1,2-a]-pyridin-3-yl)-amine] | 55 |
| CCCCNc1c(C2CCCCC2)nc2cc(C)cc(C)n12 [Example 37, Butyl-(2-cyclohexyl-5,7-dimethyl-imidazo[1,2-a]pyridin-3-yl)-amine] | 58 |
| COc1cccc(-c2nc3cc(C)ccn3c2Nc2c(C)cccc2C)c1OC [Example 39, [2-(2,3-Dimethoxy-phenyl)-7-methyl-imidazo[1,2-a]pyridin-3-yl]-(2,6-dimethyl-phenyl)-amine] | 58 |
| Cc1cc(C)n2c(Nc3c(C)cccc3C)c(-c3sccc3Br)nc2c1 [Example 42, [2-(3-Bromo-thiophen-2-yl)-5,7-dimethyl-imidazo[1,2-a]pyridin-3-yl]-(2,6-dimethyl-phenyl)-amine] | 55 |
| Cc1ccn2c(Nc3c(C)cccc3C)c(-c3ccccc3F)nc2c1 [Example 43, (2,6-Dimethyl-phenyl)-[2-(2-fluoro-phenyl)-7-methyl-imidazo[1,2-a]pyridin-3-yl]-amine] | 71 |
| Cc1ccn2c(Nc3c(C)cccc3C)c(-c3cccc(Cl)c3Cl)nc2c1 [Example 47, [2-(2,3-Dichloro-phenyl)-7-methyl-imidazo[1,2-a]pyridin-3-yl]-(2,6-dimethyl-phenyl)-amine] | 69 |
| COc1cccc(-c2nc3cc(C)cc(C)n3c2Nc2c(C)cccc2C)c1OC [Example 48, [2-(2,3-Dimethoxy-phenyl)-5,7-dimethyl-imidazo[1,2-a]pyridin-3-yl]-(2,6-dimethyl-phenyl)-amine] | 68 |
| COc1ccc(-c2nc3cc(C)ccn3c2Nc2c(C)cccc2C)cc1OC [Example 54, [2-(3,4-Dimethoxy-phenyl)-7-methyl-imidazo[1,2-a]pyridin-3-yl]-(2,6-dimethyl-phenyl)-amine] | 64 |
| CCCCNc1c(-c2cccc(O)c2)nc2cc(C)ccn12 [Example 55, 3-(3-Butylamino-7-methyl-imidazo[1,2-a]-pyridin-2-yl)-phenol] | 63 |
| Cc1cc(C)n2c(Nc3c(C)cccc3C)c(-c3cc4ccccc4o3)nc2c1 [Example 57, (2-Benzofuran-2-yl-5,7-dimethyl-imidazo[1,2-a]pyridin-3-yl)-(2,6-dimethyl-phenyl)-amine] | 57 |
| CCCCNc1c(-c2ccccc2OC)nc2cc(C)ccn12 [Example 60, Butyl-[2-(2-methoxy-phenyl)-7-methyl-imidazo[1,2-a]pyridin-3-yl]-amine] | 52 |

The remaining lines, values ahead:

| inhibition at 10 µM [%] | SMILES |
| --- | --- |
| 69 | Cc1cc(C)n2c(NC(C)(C)CC(C)(C)C)c(-c3ccc[nH]3)nc2c1 [Example 36, [5,7-Dimethyl-2-(1H-pyrrol-2-yl)-imidazo-[1,2-a]pyridin-3-yl]-(1,1,3,3-tetramethyl-butyl)-amine] |
| 60 | Cc1cc(C)n2c(NC(C)(C)CC(C)(C)C)c(-c3ccccc3C)nc2c1 [Example 38, (5,7-Dimethyl-2-o-tolyl-imidazo[1,2-a]-pyridin-3-yl)-(1,1,3,3-tetramethyl-butyl)-amine] |
| 61 | Cc1ccn2c(NC(C)(C)CC(C)(C)C)c(C)nc2c1 [Example 40, (2,7-Dimethyl-imidazo[1,2-a]pyridin-3-yl)-(1,1,3,3-tetramethyl-butyl)-amine] |
| 57 | Cc1ccn2c(NC(C)(C)CC(C)(C)C)c(-c3ccc(C4OCCO4)o3)nc2c1 [Example 41, [2-(5-[1,3]Dioxolan-2-yl-furan-2-yl)-7-methyl-imidazo[1,2-a]pyridin-3-yl]-(1,1,3,3-tetramethyl-butyl)-amine] |
| 71 | Cc1cc(C)n2c(NC(C)(C)CC(C)(C)C)c(C3CCCCC3)nc2c1 [Example 44, (2-Cyclohexyl-5,7-dimethyl-imidazo[1,2-a]-pyridin-3-yl)-(1,1,3,3-tetramethyl-butyl)-amine] |
| 59 | Cc1ccn2c(NC(C)(C)CC(C)(C)C)c(-c3ccccc3C)nc2c1 [Example 46, (7-Methyl-2-o-tolyl-imidazo[1,2-a]pyridin-3-yl)-(1,1,3,3-tetramethyl-butyl)-amine] |
| 67 | CCCCNc1c(-c2cccc(OC)c2OC)nc2cc(C)cc(C)n12 [Example 49, Butyl-[2-(2,3-dimethoxy-phenyl)-5,7-dimethyl-imidazo[1,2-a]pyridin-3-yl]-amine] |
| 59 | Cc1cc(C)n2c(NC(C)(C)C)c(-c3ccc([N+](=O)[O-])o3)nc2c1 [Example 51, Tert-butyl-[5,7-dimethyl-2-(5-nitro-furan-2-yl)-imidazo[1,2-a]pyridin-3-yl]-amine] |
| 61 | COc1ccccc1-c1nc2cc(C)cc(C)n2c1NC(C)(C)CC(C)(C)C [Example 53, [2-(2-Methoxy-phenyl)-5,7-dimethyl-imidazo[1,2-a]pyridin-3-yl]-(1,1,3,3-tetramethyl-butyl)-amine] |
| 60 | Cc1ccn2c(NC(C)(C)CC(C)(C)C)c(-c3cc4ccccc4o3)nc2c1 [Example 56, (2-Benzofuran-2-yl-7-methyl-imidazo[1,2-a]pyridin-3-yl)-(1,1,3,3-tetramethyl-butyl)-amine] |
